Assay results published in PubChem BioAssay (NCI).
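Abbreviation: GI50, concentration required for 50% inhibition of growth. The concentration for full growth arrest is given as TGI.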

Assays:
Assay in all cases: growth of human tumour cells (NCI), 384-well format
NCI-H226 lung = test system: NCI-H226 lung
U251 glioblastoma = test system: U251 glioblastoma
786-0 renal = test system: 786-0 renal
ACHN renal = test system: ACHN renal
SNB-19 CNS = test system: SNB-19 CNS
UO-31 renal = test system: UO-31 renal
MDA-MB-468 breast = test system: MDA-MB-468 breast
HCT-116 colon = test system: HCT-116 colon
SNB-75 CNS = test system: SNB-75 CNS
MALME-3M melanoma = test system: MALME-3M melanoma
HCT-15 colon = test system: HCT-15 colon
BT-549 breast = test system: BT-549 breast
SN12C renal = test system: SN12C renal
T-47D breast = test system: T-47D breast
UACC-62 melanoma = test system: UACC-62 melanoma
CCRF-CEM leukemia = test system: CCRF-CEM leukemia
SF-539 CNS = test system: SF-539 CNS
SK-MEL-5 melanoma = test system: SK-MEL-5 melanoma
OVCAR-3 ovarian = test system: OVCAR-3 ovarian
OVCAR-8 ovarian = test system: OVCAR-8 ovarian
HT29 colon = test system: HT29 colon
SK-MEL-28 melanoma = test system: SK-MEL-28 melanoma
NCI-H23 lung = test system: NCI-H23 lung
SF-295 CNS = test system: SF-295 CNS
HCC-2998 colon = test system: HCC-2998 colon
HOP-92 NSCLC = test system: HOP-92 NSCLC
COLO 205 colon = test system: COLO 205 colon
HS 578T breast = test system: HS 578T breast
EKVX NSCLC = test system: EKVX NSCLC
OVCAR-4 ovarian = test system: OVCAR-4 ovarian
TK-10 renal = test system: TK-10 renal
DU-145 prostate = test system: DU-145 prostate
SR leukemia = test system: SR leukemia
MDA-MB-435 melanoma = test system: MDA-MB-435 melanoma
MCF7 breast = test system: MCF7 breast
NCI-H522 lung = test system: NCI-H522 lung
KM12 colon = test system: KM12 colon
SF-268 CNS = test system: SF-268 CNS
SW-620 colon = test system: SW-620 colon
UACC-257 melanoma = test system: UACC-257 melanoma
OVCAR-5 ovarian = test system: OVCAR-5 ovarian
SK-OV-3 ovarian = test system: SK-OV-3 ovarian
M14 melanoma = test system: M14 melanoma
HOP-62 NSCLC = test system: HOP-62 NSCLC
IGROV1 ovarian = test system: IGROV1 ovarian
MDA-MB-231 breast = test system: MDA-MB-231 breast
NCI-H322M lung = test system: NCI-H322M lung
RPMI-8226 leukemia = test system: RPMI-8226 leukemia
RXF 393 renal = test system: RXF 393 renal
LOX IMVI melanoma = test system: LOX IMVI melanoma
NCI-H460 NSCLC = test system: NCI-H460 NSCLC
A549 NSCLC = test system: A549 NSCLC
NCI/ADR-RES ovarian = test system: NCI/ADR-RES ovarian
PC-3 prostate = test system: PC-3 prostate
CAKI-1 renal = test system: CAKI-1 renal
MOLT-4 leukemia = test system: MOLT-4 leukemia
K-562 leukemia = test system: K-562 leukemia
HL-60(TB) leukemia = test system: HL-60(TB) leukemia
A498 renal = test system: A498 renal

Structure (SMILES): CC1CCC(n2c3cnccc3c3cnc(Nc4ccc5c(n4)CCN(C(=O)CO)C5)nc32)CC1 (stereo not given)
- GI50 (NCI-H226 lung): 9.33 µM
- TGI (NCI-H226 lung): > 100 µM
- GI50 (U251 glioblastoma): 7.16 µM
- TGI (U251 glioblastoma): > 100 µM
- GI50 ([…]-0 renal): 12.4 µM
- TGI (786-0 renal): 66.9 µM
- GI50 (ACHN renal): 2.59 µM
- TGI (ACHN renal): > 21.9 µM
- GI50 (SNB-19 CNS): 7.56 µM
- TGI (SNB-19 CNS): > 100 µM
- GI50 (UO-31 renal): 15.1 µM
- TGI (UO-31 renal): > 100 µM
- GI50 (MDA-MB-468 breast): 13.5 µM
- TGI (MDA-MB-468 breast): 57.8 µM
- GI50 (HCT-116 colon): 1.69 µM
- TGI (HCT-116 colon): 16.2 µM
- GI50 (SNB-75 CNS): 4.47 µM
- TGI (SNB-75 CNS): > 20.3 µM
- GI50 (MALME-3M melanoma): 19.8 µM
- TGI (MALME-3M melanoma): > 100 µM
- GI50 (HCT-15 colon): 0.656 µM
- TGI (HCT-15 colon): > 100 µM
- GI50 (BT-549 breast): 6.54 µM
- TGI (BT-549 breast): > 72.4 µM
- GI50 (SN12C renal): 16.3 µM
- TGI (SN12C renal): > 100 µM
- GI50 (T-47D breast): > 100 µM
- TGI (T-47D breast): > 100 µM
- GI50 (UACC-62 melanoma): 6.15 µM
- TGI (UACC-62 melanoma): > 100 µM
- GI50 (CCRF-CEM leukemia): 0.638 µM
- TGI (CCRF-CEM leukemia): 2.31 µM
- GI50 (SF-539 CNS): 5.87 µM
- TGI (SF-539 CNS): > 100 µM
- GI50 (SK-MEL-5 melanoma): 2.36 µM
- TGI (SK-MEL-5 melanoma): > 94.8 µM
- GI50 (OVCAR-3 ovarian): 5.68 µM
- TGI (OVCAR-3 ovarian): 12.6 µM
- GI50 (OVCAR-8 ovarian): 6.42 µM
- TGI (OVCAR-8 ovarian): > 100 µM
- GI50 (HT29 colon): 6.05 µM
- TGI (HT29 colon): > 100 µM
- GI50 (SK-MEL-28 melanoma): 11.9 µM
- TGI (SK-MEL-28 melanoma): > 100 µM
- GI50 (NCI-H23 lung): 3.4 µM
- TGI (NCI-H23 lung): > 100 µM
- TGI (SF-295 CNS): > 73.9 µM
- GI50 (HCC-2998 colon): 1.69 µM
- TGI (HCC-2998 colon): > 100 µM
- GI50 (HOP-92 NSCLC): 6.32 µM
- TGI (HOP-92 NSCLC): > 20.6 µM
- GI50 (COLO 205 colon): 0.846 µM
- GI50 (HS 578T breast): 18.3 µM
- TGI (HS 578T breast): > 100 µM
- TGI (EKVX NSCLC): > 100 µM
- GI50 (OVCAR-4 ovarian): 15.1 µM
- TGI (OVCAR-4 ovarian): > 40 µM
- GI50 (TK-10 renal): 5.16 µM
- TGI (TK-10 renal): > 100 µM
- GI50 (DU-145 prostate): 7.86 µM
- TGI (DU-145 prostate): 42.2 µM
- GI50 (SR leukemia): 0.316 µM
- TGI (SR leukemia): 0.829 µM
- GI50 (MDA-MB-435 melanoma): 8.55 µM
- TGI (MDA-MB-435 melanoma): > 100 µM
- GI50 (MCF7 breast): 1.04 µM
- TGI (MCF7 breast): > 100 µM
- GI50 (NCI-H522 lung): 6.06 µM
- TGI (NCI-H522 lung): > 100 µM
- GI50 (KM12 colon): 0.293 µM
- TGI (KM12 colon): 4.05 µM
- GI50 (SF-268 CNS): 4.47 µM
- TGI (SF-268 CNS): 15.2 µM
- GI50 (SW-620 colon): 1.05 µM
- TGI (SW-620 colon): 14.2 µM
- GI50 (UACC-257 melanoma): > 100 µM
- TGI (UACC-257 melanoma): > 100 µM
- GI50 (OVCAR-5 ovarian): 2.23 µM
- TGI (OVCAR-5 ovarian): > 100 µM
- GI50 (SK-OV-3 ovarian): 21.6 µM
- TGI (SK-OV-3 ovarian): > 100 µM
- GI50 (M14 melanoma): 8.48 µM
- TGI (M14 melanoma): > 100 µM
- GI50 (HOP-62 NSCLC): 3.66 µM
- TGI (HOP-62 NSCLC): > 100 µM
- GI50 (IGROV1 ovarian): 8.39 µM
- TGI (IGROV1 ovarian): > 100 µM
- GI50 (MDA-MB-231 breast): 2.91 µM
- TGI (MDA-MB-231 breast): 14.4 µM
- GI50 (NCI-H322M lung): 8.61 µM
- TGI (NCI-H322M lung): > 26.4 µM
- GI50 (RPMI-8226 leukemia): 0.253 µM
- TGI (RPMI-8226 leukemia): 1.71 µM
- GI50 (RXF 393 renal): > 20.7 µM
- TGI (RXF 393 renal): > 100 µM
- GI50 (LOX IMVI melanoma): 2.4 µM
- TGI (LOX IMVI melanoma): > 100 µM
- GI50 (NCI-H460 NSCLC): 0.749 µM
- TGI (NCI-H460 NSCLC): 4.74 µM
- GI50 (A549 NSCLC): 2.15 µM
- TGI (A549 NSCLC): > 100 µM
- GI50 (NCI/ADR-RES ovarian): 13.9 µM
- TGI (NCI/ADR-RES ovarian): > 100 µM
- GI50 (PC-3 prostate): 7.58 µM
- TGI (PC-3 prostate): > 81.2 µM
- GI50 (CAKI-1 renal): 1.42 µM
- TGI (CAKI-1 renal): > 28 µM
- GI50 (MOLT-4 leukemia): 0.278 µM
- TGI (MOLT-4 leukemia): 2.71 µM
- GI50 (K-562 leukemia): 3.64 µM
- TGI (K-562 leukemia): > 100 µM
- GI50 (HL-60(TB) leukemia): 0.286 µM
- TGI (HL-60(TB) leukemia): 1.75 µM
- GI50 (A498 renal): 1.78 µM
- TGI (A498 renal): 9.42 µM
